Data set [1] in a line: Effect of gamma sterilization (25-35 kGy) on preservatives in buffer. It is filed as physicochemical. The settings on record: for Result post-gamma sterilization: gamma sterilization 25-35 kGy. The protocol:
In a preferred embodiment, sterilization is performed by use of a gamma irradiation system having a Cobalt-60 source. The system used in the examples and data presented below is a dual source (i.e. two source racks), affording continuous irradiation and wet storage. The sterilization range was 25-35 kGy, set by adjusting the time of exposure to a constant radiation source. All sterilization dose ranges were confirmed by dosimeters.
Cf. Table 3. We examined a variety of preservatives for use in this buffer.

In data set [2] the test system is six different organisms. Conditions: over eight weeks, unsterile buffer.
Description: We tested the Buffers according to USP protocol for “Antimicrobial Preservatives Effectiveness” (United States Pharmacopeia, Volume XXIV, Microbiological Tests, Section (51) Antimicrobial Effectiveness Testing, pp. 1809-11, Official Jan. 1, 2000).

For `CCCOC(=O)c1ccc(O)cc1` [Propyl paraben], the Result post-gamma sterilization entry in data set [1] was “Precipitated”.
On to `COC(=O)c1ccc(O)cc1` [Methyl paraben], for which, in data set [1], the Result post-gamma sterilization entry is listed as “Acidified”.
For the compound Benzalkonium chloride, the Result post-gamma sterilization result in data set [1] is “Precipitated”.
Take `Cl/C=C\C[N+]12CN3CN(CN(C3)C1)C2.[Cl-]` [Dowicil 200]: in data set [1], the Result post-gamma sterilization entry is recorded as “Acidified, drifted”.
As for `N=C(NCCCCCCNC(=N)NC(=N)Nc1ccc(Cl)cc1)NC(=N)Nc1ccc(Cl)cc1` [Chlorohexidine], in data set [1], the Result post-gamma sterilization result was “Precipitated”.
On the same count and under the same terms, the entry for `O=C1C(N(CO)C(=O)NCO)N(CO)C(=O)N1CO` (stereo not shown) [Germall II] is “Strong acidification, evolved CO2”.
Consider `CC(C)(C)CC(C)(C)c1ccc(OCCOCC[N+](C)(C)Cc2ccccc2)cc1` [Benzethonium chloride], for which the Result post-gamma sterilization entry in data set [1] is given as “Acceptable”. Moreover, the “effect on the final buffer formulation with regard to pH level, stability, and cosmetic factors” value in data set [1] (gamma sterilization cycle) is listed as “minimal effect”. Moreover, in data set [2], the “counts for five of the organisms” value is “no counts” and the “log reduction for the sixth organism” value is on record as greater than 3 log.

The values above are taken from patent US6846678B2, “Gamma sterilized buffer solutions for pH measurement” (Terumo Cardiovascular Systems, Co.-Tustin, priority 2002, dated 2005).
